Assay results taken from PMC11249626, “Fluorophore-Labeled Pyrrolones Targeting the Intracellular Allosteric Binding Site of the Chemokine Receptor CCR1” (ACS Pharmacology & Translational Science, 2024).
Read-outs that look alike come from different tables or passages of the source.

Target: T1, CCR1 (Homo sapiens, UniProt P32246)
T1 sequence (P32246 1-355): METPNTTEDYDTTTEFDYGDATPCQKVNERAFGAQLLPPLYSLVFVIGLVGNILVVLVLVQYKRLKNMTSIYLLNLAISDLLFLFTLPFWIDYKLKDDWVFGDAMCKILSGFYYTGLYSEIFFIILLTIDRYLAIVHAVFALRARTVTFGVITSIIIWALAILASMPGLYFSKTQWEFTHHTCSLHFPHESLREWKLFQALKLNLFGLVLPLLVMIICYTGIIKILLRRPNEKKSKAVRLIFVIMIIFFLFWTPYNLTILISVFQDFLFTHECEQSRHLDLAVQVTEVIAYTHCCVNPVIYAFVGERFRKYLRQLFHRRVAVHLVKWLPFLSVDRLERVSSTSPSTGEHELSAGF
Test: Membrane-based radioligand binding assay with [3H]-CCR2-RA-[R], U2OS membranes
Conditions: for Ki: [3H]CCR2-RA-[R] 6 nM, 25 °C
Method: Membrane-based radioligand binding assays: Assays were performed according to the published protocol.13 Radioligand binding assays were performed in a 100 µ L reaction volume containing varying concentrations (final concentrations: 0.001 – 10 µM) of compounds 23 and 5, 6 nM [3H]-CCR2-RA-[R] (specific activity 60.6 Ci mmol-1, custom labeled by Vitrax in Placentia, CA, USA), and 15 µg membrane protein, all diluted in assay buffer (50mM Tris-HCl, 5 mM MgCl2, 0.1% CHAPS, at pH 7.4). Membranes were obtained from Tango™ CCR1-bla or Tango™ CCR2-bla osteosarcoma (U2OS) cells stably expressing the human CCR1 ([…]) or human CCR2b (U2OS-CCR2) cells (Invitrogen, Carlsbad, CA, USA). Total binding was determined in the absence of competing ligand, while non -specific binding was determined in the presence of 10 µM CCR2-RA-[R]. After membrane addition, reaction mixtures were incubated for 2 h at 25 °C while shaking. After 2 h, reactions were terminated by harvesting through a 96 -well GF/C filter plate using a PerkinElmer Filtermate harvester (PerkinElmer, Groningen, NL) and ice -cold wash buffer (50mM Tris-HCl, 5 mM MgCl2, 0.1% CHAPS, at pH 7.4). Afterwards, filter plate was dried, and radioactivity was measured in a P-E-2450 Microbeta2 scintillation plate counter (PerkinElmer, Groningen, NL) after addition of 25 µL of Microscint scintillation cocktail (PerkinElmer, Groningen, NL). […]
Technologies) for 20 min. […]
Finally, the top 5% of the identified hits were subsequently docked to a homology model of CCR1 (vide infra). After visual examination of the obtained binding modes 24 hit compounds were identified for further investigation .
Molecular docking: For the docking studies in the course of our virtual screening campaign, the CCR1 protein was […]
27, 28 CCR1 structure was optimized using the Quickprep and structure preparation wizard in MOE 24 using CHARMM27 forcefield. The protein was saved in mol2 format and loaded in GOLD.25, 26 The amino acids defining the IABS were listed in a text file to define the docking cavity. 50 GA runs were performed for docking CCR2-RA-[R] (4-[R]) and SN_12 (43), with the generated solutions clustered based on their RMSD with the threshold set to 0.75 Å using the complete linkage method. Docking runs were performed using ChemScore. Flexibility of amino acids Lys63ICL1, Arg1313.50, Leu2406.36 and Arg3078.49 was taken in consideration in the docking runs, with conformational sampling of their side chains being done by the rotamer libraries implemented in GOLD.25, 26 For the docking studies with our ligand-linker conjugates (Figure S1), molecular ligand structures were geometry optimized as neutral molecules by means of Avogadro (Version 1.2.0)29 using the Universal Force Field (UFF) and the Steepest Decent Algorithm until convergence (ΔE = 0).
CCR113 was used for docking. The compounds were docked by means of AutoDock Vina 1.1.2.30, 31 An exhaustiveness value of 8 and a search space of 22 x 22 x 22 Å³ was applied around the unliganded intracellular allosteric binding site of CCR1. Twenty docking poses were generated for each ligand and inspected manually and according to the docking score.

[1] = read-out: Ki, CCR1 (radioligand)

Row | SMILES | Ki [1] [nM] | Ki (read-out: pKi, CCR1 (radioligand) (converted)) [nM] | CCR1 over CCR2 binding selectivity (radioligand) [fold]
1 | CC(=O)C1=C(O)C(=O)N(c2ccc(Br)cc2F)C1C1CCCCC1 (stereo not shown) [compound 5, reference compound] | 18 | 15.8 | 
2 | O=C(C1=C(O)C(=O)N(CCc2ccc(O)cc2)C1c1ccc(F)cc1)c1ccccc1 (racemic) [compound 23] | 117 |  | 33
